From article PMC3713097 (Chemical research in toxicology, 2013)
Like-named read-outs stand apart in the source and are kept apart here.

Assays:
P450 2A13 = molecular target: T1, P450 2A13 (Homo sapiens, UniProt Q16696); experiment: Spectral binding titration with purified P450 2A13
T1 sequence (Q16696 with tags, fused parts or gaps limits assumed): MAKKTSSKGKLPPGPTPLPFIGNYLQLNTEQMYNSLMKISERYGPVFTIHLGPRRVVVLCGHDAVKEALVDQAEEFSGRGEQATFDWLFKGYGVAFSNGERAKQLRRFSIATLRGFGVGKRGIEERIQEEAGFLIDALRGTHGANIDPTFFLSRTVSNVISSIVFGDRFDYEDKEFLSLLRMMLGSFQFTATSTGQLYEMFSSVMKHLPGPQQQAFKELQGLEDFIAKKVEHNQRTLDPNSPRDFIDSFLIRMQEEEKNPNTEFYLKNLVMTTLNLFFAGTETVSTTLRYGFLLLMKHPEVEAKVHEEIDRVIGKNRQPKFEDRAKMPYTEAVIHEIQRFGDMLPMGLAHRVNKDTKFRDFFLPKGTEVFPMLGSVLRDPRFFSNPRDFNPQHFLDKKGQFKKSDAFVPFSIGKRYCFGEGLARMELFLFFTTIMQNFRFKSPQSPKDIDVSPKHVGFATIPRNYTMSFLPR

P450 2A6 [1] = molecular target: T2, P450 2A6 (Homo sapiens, UniProt P11509); experiment: Spectral binding titration with purified P450 2A6
T2 sequence (P11509 1-494): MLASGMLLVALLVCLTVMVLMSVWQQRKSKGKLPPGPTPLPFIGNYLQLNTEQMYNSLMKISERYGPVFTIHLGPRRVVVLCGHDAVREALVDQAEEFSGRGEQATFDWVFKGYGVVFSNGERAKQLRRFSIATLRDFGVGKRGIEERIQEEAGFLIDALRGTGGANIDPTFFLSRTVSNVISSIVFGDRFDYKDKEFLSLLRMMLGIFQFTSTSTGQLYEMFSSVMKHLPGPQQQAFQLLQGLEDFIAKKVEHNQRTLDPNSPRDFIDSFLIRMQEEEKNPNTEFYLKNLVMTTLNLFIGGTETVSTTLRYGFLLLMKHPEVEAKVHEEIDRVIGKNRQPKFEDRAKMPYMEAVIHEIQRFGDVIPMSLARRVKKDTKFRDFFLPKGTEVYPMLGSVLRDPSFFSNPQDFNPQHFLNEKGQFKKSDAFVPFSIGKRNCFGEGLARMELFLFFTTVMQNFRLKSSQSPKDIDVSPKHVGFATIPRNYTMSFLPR

P450 1B1 [2] = molecular target: T3, P450 1B1 (Homo sapiens, UniProt Q16678, L432V); experiment: Spectral binding titration with purified P450 1B1
T3 sequence (Q16678 1-543 L432V): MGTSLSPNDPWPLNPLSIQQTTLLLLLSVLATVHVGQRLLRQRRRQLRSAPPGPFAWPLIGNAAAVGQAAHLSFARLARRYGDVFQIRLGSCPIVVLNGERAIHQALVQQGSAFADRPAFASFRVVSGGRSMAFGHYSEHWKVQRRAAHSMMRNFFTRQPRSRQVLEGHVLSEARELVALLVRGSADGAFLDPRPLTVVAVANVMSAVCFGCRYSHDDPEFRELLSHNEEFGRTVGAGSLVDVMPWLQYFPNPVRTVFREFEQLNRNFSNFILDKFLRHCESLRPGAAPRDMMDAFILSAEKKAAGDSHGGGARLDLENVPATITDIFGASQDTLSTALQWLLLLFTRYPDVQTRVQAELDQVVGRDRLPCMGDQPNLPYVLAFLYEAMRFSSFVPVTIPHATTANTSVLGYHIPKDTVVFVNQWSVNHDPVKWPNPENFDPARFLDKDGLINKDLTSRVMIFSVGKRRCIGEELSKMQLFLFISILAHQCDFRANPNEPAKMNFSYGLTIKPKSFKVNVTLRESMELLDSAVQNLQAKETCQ

human P450 2A13 [3] = molecular target: T4, human P450 2A13 (Homo sapiens, UniProt Q16696); conditions: pH 7.4
T4 sequence (Q16696 31-494 limits assumed): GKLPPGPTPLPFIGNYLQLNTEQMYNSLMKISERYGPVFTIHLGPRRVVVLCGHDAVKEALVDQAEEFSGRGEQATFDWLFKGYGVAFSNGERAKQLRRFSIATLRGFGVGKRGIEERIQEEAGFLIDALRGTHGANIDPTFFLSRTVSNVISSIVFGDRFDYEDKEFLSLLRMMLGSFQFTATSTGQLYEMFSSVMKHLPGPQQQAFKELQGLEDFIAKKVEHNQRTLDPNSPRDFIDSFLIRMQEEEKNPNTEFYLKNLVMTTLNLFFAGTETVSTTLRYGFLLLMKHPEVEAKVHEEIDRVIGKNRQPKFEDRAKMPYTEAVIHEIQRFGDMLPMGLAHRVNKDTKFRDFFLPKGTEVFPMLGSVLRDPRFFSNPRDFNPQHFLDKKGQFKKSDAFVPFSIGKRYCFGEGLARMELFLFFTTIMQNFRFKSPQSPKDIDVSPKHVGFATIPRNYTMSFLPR

P450 2A6 [4] = molecular target: T2, P450 2A6; conditions: pH 7.4
P450 1B1 [5] = molecular target: T3, P450 1B1; conditions: pH 7.4
P450 1B1 [6] = molecular target: T3, P450 1B1; conditions: 10 nM P450, 2.5 µM procarcinogen, means ± range of duplicate experiments
human P450 2A13 [7] = molecular target: T4, human P450 2A13; conditions: 10 nM P450, 2.5 µM procarcinogen, means ± range of duplicate experiments

C1=Cc2cccc3cccc1c23 [acenaphthylene]
Kd (P450 2A13): 0.61 ± 0.19 µM
ΔAmax (P450 2A13): 0.050 ± 0.004
ΔAmax/ Ks (P450 2A13): 0.082
Kd (P450 2A6 [1]): 4.4 ± 0.52 µM
spectral interaction with P450 2A6 (Type I binding spectra) (P450 2A6 [1]): interacted
ΔAmax (P450 2A6 [1]): 0.076 ± 0.52
ΔAmax/ Ks (P450 2A6 [1]): 0.017
Kd (P450 1B1 [2]): > 20 µM
activation of procarcinogens umu gene expression (human P450 2A13 [3]; 2.5 µM): <10 units/min/nmol P450
activation of procarcinogens umu gene expression (P450 2A6 [4]; 2.5 µM): <10 units/min/nmol P450
activation of procarcinogens umu gene expression (P450 1B1 [5]; 2.5 µM): <10 units/min/nmol P450

c1ccc2c(c1)-c1cccc3cccc-2c13 [fluoranthene]
Kd (P450 2A13): 2.4 ± 1.5 µM
ΔAmax (P450 2A13): 0.044 ± 0.011
ΔAmax/ Ks (P450 2A13): 0.018
Kd (P450 2A6 [1]): > 20 µM
Kd (P450 1B1 [2]): 1.6 ± 0.32 µM
ΔAmax (P450 1B1 [2]): 0.066 ± 0.003
ΔAmax/ Ks (P450 1B1 [2]): 0.042
activation of procarcinogens umu gene expression (human P450 2A13 [3]): <10 units/min/nmol P450
activation of procarcinogens umu gene expression (P450 2A6 [4]): <10 units/min/nmol P450
activation of procarcinogens umu gene expression (P450 1B1 [5]): <10 units/min/nmol P450

OC1C=Cc2c(cc3ccc4cccc5ccc2c3c45)C1O (racemic) [( ± )B[a]P-7,8-diol, 7,8-dihydroxy-7,8-dihydrobenzo[a]pyrene]
Kd (P450 2A13): > 20 µM
Kd (P450 1B1 [2]): 6.8 ± 1.2 µM
ΔAmax/ Ks (P450 1B1 [2]; P450 1B1, Reverse Type I spectra): 0.0035
ΔAmax (P450 1B1 [2]; P450 1B1, Reverse Type I spectra, ± SE): 0.024 ± 0.002
activation of procarcinogens umu gene expression (P450 2A6 [4]): 45 ± 11 units/min/nmol P450
activation of procarcinogens umu gene expression (P450 1B1 [6]): 2600 ± 110 units/min/nmol P450
activation of procarcinogens umu gene expression (human P450 2A13 [7]): 136 ± 22 units/min/nmol P450

Cc1c2ccccc2c(C)c2c1ccc1ccccc12 [7,12-DMBA, 7,12-dimethylbenz[a]anthracene]
Kd (P450 2A13): > 20 µM
Kd (P450 1B1 [2]): 8.8 ± 1.3 µM
ΔAmax (P450 1B1 [2]): 0.039 ± 0.002
ΔAmax/ Ks (P450 1B1 [2]): 0.0044
activation of procarcinogens umu gene expression (human P450 2A13 [3]): <10 units/min/nmol P450
activation of procarcinogens umu gene expression (P450 2A6 [4]): <10 units/min/nmol P450
activation of procarcinogens umu gene expression (P450 1B1 [5]): 190 ± 21 units/min/nmol P450

Cc1cnc2ccc3c(nc(N)n3C)c2n1 [MeIQx, 2-amino-3,8-dimethylimiidazo[4,5-f]quinoxaline]
activation of procarcinogens umu gene expression (human P450 2A13 [3]): 110 ± 15 units/min/nmol P450
activation of procarcinogens umu gene expression (P450 2A6 [4]): 45 ± 15 units/min/nmol P450
activation of procarcinogens umu gene expression (P450 1B1 [5]): 87 ± 11 units/min/nmol P450

OC1C=Cc2c(ccc3cc4ccccc4cc23)C1O (stereo not drawn) [B[a]A-trans-3,4-diol, 3,4-dihydroxy-3,4-dihydrobenz[a]anthracene]
Kd (P450 1B1 [2]; human, pH 7.4): > 20 µM
activation of procarcinogens umu gene expression (human P450 2A13 [3]; 2.5 µM): <10 units/min/nmol P450
activation of procarcinogens umu gene expression (P450 2A6 [4]; 2.5 µM): <10 units/min/nmol P450
activation of procarcinogens umu gene expression (P450 1B1 [5]; 2.5 µM): <10 units/min/nmol P450

Cc1c2ccccc2c(C)c2c3c(ccc12)C(O)C(O)C=C3 (stereo not drawn) [7,12-DMBA-3,4-diol, 3,4-dihydroxy-3,4-dihydro-7,12-dimethylbenz[a]anthracene]
Kd (P450 2A13; human, pH 7.4): > 20 µM
Kd (P450 1B1 [2]; human, pH 7.4): > 20 µM
activation of procarcinogens umu gene expression (human P450 2A13 [3]; 2.5 µM): 280 ± 33 units/min/nmol P450
activation of procarcinogens umu gene expression (P450 2A6 [4]; 2.5 µM): 55 ± 13 units/min/nmol P450
activation of procarcinogens umu gene expression (P450 1B1 [5]; 2.5 µM): 2700 ± 110 units/min/nmol P450

Cc1c(N)nc(C)c2c1[nH]c1ccccc12 [Trp-P-1, 3-amino-1,4-dimethyl-5H-pyrido[4,3-b]indole]
Kd (P450 1B1 [2]): > 20 µM
activation of procarcinogens umu gene expression (human P450 2A13 [3]): 40 ± 9 units/min/nmol P450
activation of procarcinogens umu gene expression (P450 2A6 [4]): 61 ± 11 units/min/nmol P450
activation of procarcinogens umu gene expression (P450 1B1 [5]): 910 ± 90 units/min/nmol P450
